Marks after values point to notes of the source that are not given here.
Tests used:
Assay type in all cases: in vivo
Conditions in all cases: 120 mg/kg po; estradiol 0.03 μg/head sc
OVX ddY mice [1] = assay: Femur weights in OVX ddY mice
Experimental: (§1) Optimal amounts of red clover extract or pomegranate extract were suspended or dissolved in sterile distilled water, and orally administered at a dose of 10 ml/kg once daily for 84 days from 28 days after OVX. That is, red clover extract and pomegranate extract single formula, and red clover:pomegranate extract 1:1, 1:2, 1:4, 1:6, 1:8, 2:1, 4:1, 6:1 and 8:1 (g/g) mixture 120 mg/kg were each orally administered for 84 days, and sham control and OVX control were orally administered with only sterile distilled water as a vehicle at the same dose for the same period instead of the test material, and according to earlier researchers' method [Chiba et al., 2003; Murakami et al., 2007; Tousen et al., 2011], 0.03 ug of 17β-estradiol (Sigma-Aldrich, St. Louise, Mo., USA) was dissolved in 0.2 ml of sterile saline, and subcutaneously administered to back skin at a dose of 0.2 ml/mouse (0.03 μg/head/day) once daily for 84 days from 28 days after OVX surgery (Table 15, FIG. 18). The administration dose of mixed formula was set higher 12 times than a human clinical dose of 600 mg, i.e., 600 mg/60 kg)×12=120 mg/kg, in consideration of a body surface area of mouse, and the dose of each of red clover extract and pomegranate extract single formula was also set as 120 mg/kg for direct comparative evaluation of efficacy.
(§2) The osteoporosis reduction effect was ascertained through histological changes in wet, dry and ash weights of femurs, BMD (FIG. 20), bone strength (FIG. 21), serum osteocalcin and bALP levels, bone mass and structure (trabecular bone mass, trabecular bone number, thickness and length, and cortical bone thickness), and bone resorption (osteoclast cell number and osteoclast cell surface (OS/BS)).

OVX ddY mice [2] = assay: Femur histomorphometry in OVX ddY mice
Experimental: as §1, §2

OVX ddY mice [3] = assay: Femur bone strength (failure load) in OVX ddY mice
Experimental: Bone strength is measured through failure load (FL).
as §1, with “efficacy. […]” for “efficacy.”

OVX ddY mice [4] = assay: Serum biochemistry in OVX ddY mice
Experimental: as §1
(§3) More specifically, the anti-obesity and estrogen-like effects were tested as follows. The body weights on OVX surgery date, 1 day before administration (27 days after OVX), the start date of administration, and from the first day after start of administration up to the time of final sacrifice at least once a week were each recorded, and change amounts of body weights, i.e., body weight gains, for the recovery period after OVX (menopausal disorder induction period) and 12 weeks after start of administration were measured. Food consumption (1, 3, 7, 28, 56 and 83 days after start of administration), serum estradiol levels, amounts of body fat and abdominal fat, weights of abdominal fat pad and uterus, histological changes of uterus and abdominal fat pads (changes in abdominal fat pad thickness and mean adipocyte diameter, thickness of uterus total, epithelium and mucosa, and percentage of uterine glands in the mucosa (FIG. 19) were observed.
(§4) Furthermore, to ascertain the protective effect against fatty liver, testing was conducted as follows. Liver weight, serum AST and ALT levels, and histological changes of liver (changes in mean hepatocyte diameter and region with hepatic degeneration showing fatty change) were observed.
The hyperlipidemia inhibitory effect was ascertained through changes in serum TC, LDL, HDL and TG levels.
as §2

OVX ddY mice [5] = assay: Histology of abdominal fat pad, uterus and liver in OVX ddY mice
Experimental: as §1, §3, §4

OVX ddY mice [6] = assay: Body weight and food consumption in OVX ddY mice, once daily for 84 days
Experimental: That is, the experiment was performed after dividing into sterile distilled water 10 ml/kg administered vehicle control after sham surgery (hereinafter sham control), sterile distilled water 10 ml/kg administered vehicle control after OVX surgery (hereinafter OVX control), pomegranate extract single formula 120 mg/kg administered group (PCP) after OVX, and 9 types of red clover:pomegranate extract mixed formula (g/g) administered groups after OVX surgery including red clover:pomegranate extract 1:1 (g/g) mixed formula 120 mg/kg administered group after OVX surgery (1-1), red clover:pomegranate extract 1:2 (g/g) mixed formula 120 mg/kg administered group after OVX surgery (1-2), red clover:pomegranate extract 1:4 (g/g) mixed formula 120 mg/kg administered group after OVX surgery (1-4), red clover:pomegranate extract 1:6 (g/g) mixed formula 120 mg/kg administered group after OVX surgery (1-6), red clover:pomegranate extract 1:8 (g/g) mixed formula 120 mg/kg administered group after OVX surgery (1-8), red clover:pomegranate extract 2:1 (g/g) mixed formula 120 mg/kg administered group after OVX surgery (2-1), red clover:pomegranate extract 4:1 (g/g) mixed formula 120 mg/kg administered group after OVX surgery (4-1), red clover:pomegranate extract 6:1 (g/g) mixed formula 120 mg/kg administered group after OVX surgery (6-1), and red clover:pomegranate extract 8:1 (g/g) mixed formula 120 mg/kg administered group after OVX surgery (8-1).
as §1
That is, all experimental animals except sham control were randomly selected and underwent bilateral ovariectomy to induce estrogen deficient menopausal disorder. On the other hand, in sham operated group, both ovaries were detected by the same method but incisions were not made, and abdominal cavities were closed again. At 27 days after surgery, based on body weights (OVX mice: 30.71±1.65 g, 28.0-35.1 g; sham operated mice: 26.99±1.46 g, 24.4-28.7 g), 8 mice per group were selected from all experimental animals including sham operated group, and used for experiments.
More specifically, the anti-obesity and estrogen-like effects were tested as follows. The body weights on OVX surgery date, 1 day before administration (27 days after OVX), the start date of administration, and from the first day after start of administration up to the time of final sacrifice at least once a week were each recorded, and change amounts of body weights, i.e., body weight gains, for the recovery period after OVX (menopausal disorder induction period) and 12 weeks after start of administration were measured. […]

OVX ddY mice [7] = assay: Abdominal fat pad, uterus and liver weights in OVX ddY mice
Experimental: as §1, §3, §4

OVX ddY mice [8] = assay: Bone mineral density and fat density (DEXA) in OVX ddY mice
Experimental: as §1, §3, §2

C[C@]12CC[C@@H]3c4ccc(O)cc4CC[C@H]3[C@@H]1CC[C@@H]2O [Estradiol, 17β-estradiol]
Change in femur absolute ash weight vs OVX control (OVX ddY mice [1]): 30.35% | Change in femur absolute dry weight vs OVX control (OVX ddY mice [1]): 14.93% | Change in femur absolute wet weight vs OVX control (OVX ddY mice [1]): 5.79% | Change in femur relative ash weight vs OVX control (OVX ddY mice [1]): 57.03% | Change in femur relative dry weight vs OVX control (OVX ddY mice [1]): 38.22% | Change in femur relative wet weight vs OVX control (OVX ddY mice [1]): 27.75% | Femur absolute ash weight (OVX ddY mice [1]): 0.033 ± 0.002^ac g | Femur absolute dry weight (OVX ddY mice [1]): 0.058 ± 0.004^gi | Femur absolute wet weight (OVX ddY mice [1]): 0.094 ± 0.007 g | Femur relative ash weight (OVX ddY mice [1]): 0.092 ± 0.007^ac % of body weight | Femur relative dry weight (OVX ddY mice [1]): 0.162 ± 0.016^gi % of body weight | Femur relative wet weight (OVX ddY mice [1]): 0.264 ± 0.032^ac % of body weight | Change in femur OS/BS vs OVX control (OVX ddY mice [2]): −37.50% | Change in femur cortical bone thickness vs OVX control (OVX ddY mice [2]): 21.85% | Change in femur mean trabecular bone number vs OVX control (OVX ddY mice [2]): 92.68% | Change in femur osteoclast cell number vs OVX control (OVX ddY mice [2]): −55.15% | Change in femur trabecular bone mass vs OVX control (OVX ddY mice [2]): 73.01% | Change in mean length of femur trabecular bone vs OVX control (OVX ddY mice [2]): 89.04% | Change in mean thickness of femur trabecular bone vs OVX control (OVX ddY mice [2]): 70.56% | Left femur Cbt (OVX ddY mice [2]): 184.17 ± 8.40^eg | Left femur OS/BS (OVX ddY mice [2]): 13.12 ± 1.41^eg | Left femur Ocn (OVX ddY mice [2]): 7.63 ± 1.06^ab | Left femur TV/BV (OVX ddY mice [2]): 29.89 ± 5.24^ab | Left femur Tbl (OVX ddY mice [2]): 905.51 ± 146.34^g | Left femur Tbn (OVX ddY mice [2]): 9.88 ± 1.36^eg | Left femur Tbt (OVX ddY mice [2]): 55.34 ± 8.99^eg | Change in bone strength of femur mid-shaft region vs OVX control (OVX ddY mice [3]): 61.41% | Change in serum AST level vs OVX control (first series) (OVX ddY mice [4]): −33.98% | Change in serum AST level vs OVX control (second series) (OVX ddY mice [4]): −31.58% | Change in serum HDL level vs OVX control (OVX ddY mice [4]): 52.09% | Change in serum LDL level vs OVX control (OVX ddY mice [4]): −26.87% | Change in serum TC level vs OVX control (OVX ddY mice [4]): −25.94% | Change in serum TG level vs OVX control (OVX ddY mice [4]): −34.80% | Change in serum bALP level vs OVX control (OVX ddY mice [4]): 39.72% | Change in serum estradiol level vs OVX control (OVX ddY mice [4]): 185.69% | Change in serum osteocalcin level vs OVX control (OVX ddY mice [4]): −31.95% | Serum ALT (OVX ddY mice [4]): 52.00 ± 10.03^ac U/L | Serum AST (OVX ddY mice [4]): 107.13 ± 12.43^ac U/L | Serum HDL (OVX ddY mice [4]): 72.63 ± 11.04^ac mg/dl | Serum LDL (OVX ddY mice [4]): 133.00 ± 10.54^ac mg/dl | Serum TC (OVX ddY mice [4]): 132.75 ± 21.06^ac mg/dl | Serum TG (OVX ddY mice [4]): 97.88 ± 18.16^ac mg/dl | Change in abdominal fat pad thickness vs OVX control (OVX ddY mice [5]): −52.23% | Change in mean adipocyte diameter vs OVX control (OVX ddY mice [5]): −48.06% | Change in mean hepatocyte diameter vs OVX control (OVX ddY mice [5]): −42.21% | Change in percentage of uterine glands in the uterine mucosa vs OVX control (OVX ddY mice [5]): 180.37% | Change in region with hepatic fatty degeneration vs OVX control (OVX ddY mice [5]): −44.73% | Change in uterine epithelium mean thickness vs OVX control (OVX ddY mice [5]): 170.17% | Change in uterine mucosa mean thickness vs OVX control (OVX ddY mice [5]): 196.04% | Change in uterus total mean thickness vs OVX control (OVX ddY mice [5]): 181.27% | Hepatic steatosis regions (OVX ddY mice [5]): 43.43 ± 6.53^ac % | Left uterine horn epithelium thickness (OVX ddY mice [5]): 20.75 ± 4.52^ac μm | Left uterine horn mucosa layer thickness (OVX ddY mice [5]): 598.74 ± 153.51^ac μm | Left uterine horn total thickness (OVX ddY mice [5]): 1593.32 ± 371.85^bc μm | Mean adipocyte diameters (OVX ddY mice [5]): 67.49 ± 14.77^ac μm | Mean hepatocyte diameters (OVX ddY mice [5]): 18.45 ± 3.66^ac μm | Uterine gland regions (OVX ddY mice [5]): 34.93 ± 4.60^ac % | Body weight at sacrifice (OVX ddY mice [6]): 35.68 ± 2.19^ab g | Body weight gain, treatment [D-C] (OVX ddY mice [6]): 6.96 ± 1.21^fg | Change in body weight gain for duration of administration vs OVX control (OVX ddY mice [6]): −52.56% | Change in food consumption vs OVX control, day 1 (OVX ddY mice [6]): 0.87% | Change in food consumption vs OVX control, day 3 (OVX ddY mice [6]): −5.24% | Change in food consumption vs OVX control, day 7 (OVX ddY mice [6]): −13.04% | Change in food consumption vs OVX control, day 28 (OVX ddY mice [6]): −16.34% | Change in food consumption vs OVX control, day 56 (OVX ddY mice [6]): −20.01% | Change in food consumption vs OVX control, day 83 (OVX ddY mice [6]): −27.82% | Food consumption, day 1 (OVX ddY mice [6]): 11.49 ± 1.41^a g/24 hrs/rat | Food consumption, day 3 (OVX ddY mice [6]): 10.53 ± 0.93^a g/24 hrs/rat | Food consumption, day 7 (OVX ddY mice [6]): 9.82 ± 0.93^ac g/24 hrs/rat | Food consumption, day 28 (OVX ddY mice [6]): 9.52 ± 1.01^ab g/24 hrs/rat | Food consumption, day 56 (OVX ddY mice [6]): 10.24 ± 0.98^ab g/24 hrs/rat | Food consumption, day 83 (OVX ddY mice [6]): 10.65 ± 1.54^de g/24 hrs/rat | Abdominal fat pad absolute wet-weight (OVX ddY mice [7]): 0.600 ± 0.536^bc g | Abdominal fat pad relative wet-weight (OVX ddY mice [7]): 1.656 ± 1.432^bc % of body weight | Change in abdominal fat pad absolute weight vs OVX control (OVX ddY mice [7]): −82.20% | Change in abdominal fat pad relative weight vs OVX control (OVX ddY mice [7]): −78.86% | Change in absolute liver weight vs OVX control (OVX ddY mice [7]): 5.37% | Change in relative liver weight vs OVX control (OVX ddY mice [7]): 27.16% | Change in uterus absolute weight vs OVX control (OVX ddY mice [7]): 288.64% | Change in uterus relative weight vs OVX control (OVX ddY mice [7]): 372.56% | Liver absolute wet-weight (OVX ddY mice [7]): 1.324 ± 0.073 g | Liver relative wet-weight (OVX ddY mice [7]): 3.724 ± 0.307^c % of body weight | Uterus absolute wet-weight (OVX ddY mice [7]): 0.107 ± 0.040^ac g | Uterus relative wet-weight (OVX ddY mice [7]): 0.303 ± 0.124^ac % of body weight | Bone mineral density, right femur (OVX ddY mice [8]): 0.0259 ± 0.0008^bc g/cm^2 | Bone mineral density, total body (OVX ddY mice [8]): 0.0237 ± 0.0004^ac g/cm^2 | Change in amount of abdominal fat vs OVX control (OVX ddY mice [8]): −35.00% | Change in amount of body fat vs OVX control (OVX ddY mice [8]): −33.02% | Change in mean total body bone mineral density vs OVX control (OVX ddY mice [8]): 9.86% | Change in total femur bone mineral density vs OVX control (OVX ddY mice [8]): 10.78% | Fat density, abdominal cavity (OVX ddY mice [8]): 26.75 ± 4.22^ac % of body mass | Fat density, total body (OVX ddY mice [8]): 23.42 ± 4.24^ac % of body mass

Source: patent US10709750B2, “Female menopause alleviation use of composition containing composite extract of red clover and pomegranate as active ingredient” (HLSCIENCE CO., LTD, priority 2014, dated 2020)
